# Experiments:
# [1] = molecular target: PDEIV; assay: Inhibition of Pulmonary Phosphodiesterase (PDEIV); assay type: biochemical; conditions: guinea pig lung PDEIV, 1 μM [3H]-cAMP, 37° C., 10 minutes; read-out: IC50 (concentration inhibiting 50% of specific hydrolysis of [3H]cAMP to [3H]5'AMP)
# Protocol: Lung tissue from guinea pigs was placed in a homogenization buffer solution (20 mM Bistris, 5 mM 2-mercaptoethanol, 2 mM benzamidine, 2 mM EDTA, 50 mM sodium acetate, pH 6.5) at a concentration of 10 ml/gm of tissue. The tissue was homogenized using a Tekmar Tissumizer at full speed for 10 seconds. Phenylmethylsulfonyl fluoride (PMSF, 50 mM in 2-propanol) was added to the buffer immediately prior to homogenization to give a final PMSF concentration of 50 μM. The homogenate was centrifuged at 12,000×g for 10 minutes at 4° C. The supernatant was filtered through gauze and glass wool and then applied to a 17×1.5 cm column of DEAE-Sepharose CL-6B, pre-equilibrated with homogenization buffer, at 4° C. A flow rate of 1 ml/min was used. After the supernatant had passed through the column, the column is washed with a volume of homogenization buffer at least two times that of the supernatant. […] Fractions were saved based on specific PDEIV activity, determined by [3H]cAMP hydrolysis and the ability of a […]. […]
# The reaction tubes were shaken and placed in a water bath (37° C.) for 10 minutes, at which time the reaction was stopped by placing the tubes in a boiling water bath for 2 minutes. […] After vortexing, 1 ml of the elution was added to 3 ml Atomlight scintillation fluid in an appropriate vial, vortexed, and counted for [3H].
# Percent inhibition is determined by the formula: [formula] […]
# [2] = test system: eosinophil migration into sensitized lung tissue; assay: Inhibition of eosinophil migration into sensitized lung tissue challenged with antigen in guinea pigs (EPO response in lung lavage); assay type: in vivo, guinea pig; conditions: Cavia porcellus, po, guinea pigs sensitized with anti-OA IgG1, dosed P.O., ovalbumin aerosol, lung lavage after 18 hours, read-out: ED50 (inhibition of specific EPO response due to antigen challenge)
# Protocol: Normal Hartley guinea pigs (300-350 grams) delivered from Charles River Laboratories were housed 5-7 days before sensitization. Guinea pigs were then sensitized with 0.5 mg/kg anti-OA IgGl or saline as control. After 48-72 hours, guinea pigs were dosed P.O. in groups of six animals each with compounds at up to 32 mg/kg using 2% Tween 80 as vehicle. After 1-1.5 hours the animals were injected i.p. with 5 mg/kg pyrilamine. Thirty minutes following pyrilamine administration, animals were exposed to 10 minutes of a 0.1% ovalbumin (OA) aerosol followed by a 15 minute cloud decay period in a Tri-R Airborne Infection Apparatus (Compression air flow=20 L/min, main air flow=8.4 L/min). Guinea pigs were removed from the apparatus and caged for 18 hours prior to sacrifice and the following lung lavage procedure. […]
# The aliquoted sample with Triton was diluted with 1 ml PBS/0.1% Triton buffer (pH 7.0). […] The O.D. of the mixture was measured at 490 nm, with background O.D. (blank tube) subtracted out.
# Duplicate O.D. readings were averaged to obtain a single value for each animal. Average O.D. +/- standard error is calculated using the six obtained values within each group of animals. Specific EPO response due to antigen challenge is calculated by: […]
# Percent inhibition of specific EPO response due to drug pretreatment is calculated by: [formula]
# [3] = test system: antigen-induced skin edema; assay: Inhibition of Skin Edema in Guinea Pigs Sensitized to Ovalbumin; assay type: in vivo, guinea pig; conditions: 32 mg/Kg oral, two guinea pigs, intradermal ovalbumin challenge one hour after dosing, read after twenty minutes
# Protocol: Four guinea pigs (Hartley, male, 350-400 g) were sensitized with anti-ovalbumin IgGI antibody. Two guinea pigs were orally dosed with 32 mg/Kg of the test compound and two other guinea pigs were dosed with vehicle (2% Tween-80). One-hour after dosing, each guinea pig was injected intraveneously with 1 ml of Evan Blue (7 mg/ml) and then his skin was challenged intradermally with 0.1 ml of ovalbumin (0.1%) or PBS. Twenty minutes after challenge, the skin was removed and skin edematous site (circular blue spots at challenge sites) was examined visually.
# [4] = test system: phosphodiesterases prepared from cerebral cortices of rats; conditions: phosphodiesterases from rat cerebral cortices; noted at page 25 of W087/06576; cited from earlier work
smiles,measurement,setting,value
"COc1ccc(C2CNC(=O)NC2)cc1O[C@H]1C[C@@H]2CC[C@H]1C2 (relative stereo) [5-(3-(exo-bicyclo[2.2.1]hept-2-yloxy)-4-methoxyphenyl)-3,4,5,6-tetrahydropyrimidin-2(1H)-one]",IC50,[1],500 nM
same,ED50,[2],10 mg/kg
same,intensity and area of blue spots (skin edema) at antigen-challenged sites vs vehicle-dosed animals,[3],markedly reduced
same,in vitro activity as an inhibitor of phosphodiesterases,[4],possesses in vitro activity as an inhibitor

# Reference: US5270206A, “Enzymatic resolution of endo-bicyclo[2.2.1]heptan-2-ol and derived pharmaceutical agents” (Pfizer Inc., priority 1992, dated 1993)
